# Target: T1, Seed linoleate 13S-lipoxygenase-1 (Glycine max, UniProt P08170)
# T1 sequence (P08170 whole entry): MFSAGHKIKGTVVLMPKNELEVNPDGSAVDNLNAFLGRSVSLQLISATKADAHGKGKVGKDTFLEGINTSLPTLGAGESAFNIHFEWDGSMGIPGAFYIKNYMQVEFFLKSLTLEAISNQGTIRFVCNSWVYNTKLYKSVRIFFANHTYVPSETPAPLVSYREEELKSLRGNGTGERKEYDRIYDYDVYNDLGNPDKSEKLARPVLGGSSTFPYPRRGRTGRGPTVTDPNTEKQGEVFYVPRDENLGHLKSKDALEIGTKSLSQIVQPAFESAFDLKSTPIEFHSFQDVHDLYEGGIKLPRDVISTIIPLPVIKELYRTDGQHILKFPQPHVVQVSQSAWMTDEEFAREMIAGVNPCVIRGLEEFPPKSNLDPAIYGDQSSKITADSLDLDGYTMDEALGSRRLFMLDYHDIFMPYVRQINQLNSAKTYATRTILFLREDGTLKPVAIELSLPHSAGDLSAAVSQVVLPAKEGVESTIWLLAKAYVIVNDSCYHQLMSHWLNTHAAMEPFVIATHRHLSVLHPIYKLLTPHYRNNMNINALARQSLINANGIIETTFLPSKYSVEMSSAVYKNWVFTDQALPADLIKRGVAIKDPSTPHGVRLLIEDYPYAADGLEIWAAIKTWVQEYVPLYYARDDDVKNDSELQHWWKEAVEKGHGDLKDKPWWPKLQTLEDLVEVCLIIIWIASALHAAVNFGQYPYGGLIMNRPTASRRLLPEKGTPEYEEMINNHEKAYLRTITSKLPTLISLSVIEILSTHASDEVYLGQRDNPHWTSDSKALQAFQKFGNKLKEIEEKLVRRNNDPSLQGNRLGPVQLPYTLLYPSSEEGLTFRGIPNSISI
# Test: In-vitro LOX Inhibition Assay
# Settings: pH 9; 25 °C
# Protocol: It is determined by kinetic mode of spectro-photometric determination method,which was performed by recording the rate of change in absorbance at 234 nm. It is based on the principle that the increase of absorbance at 234 nm due to formation of 9- and 13- hydroperoxides by LOX with substrate (linoleic acid). […] Briefly, the stock solution of lipoxygenase was prepared by dissolving 10,000 units/ml of Lipoxidase in 200 mM borate buffer, pH 9, and 5 uL of 80 mmol linoleic acid. Six different concentrations of inhibitors were selected, and made for determining the enzyme inhibition activity. Increasing concentrations of inhibitors were added to enzyme solution and kept for 5 min followed by substrate addition and kept at room temperature with stirring for 20 min.
row,Structure (SMILES),IC50 [nM]
1,COc1ccc2nc(NCC(O)COc3ccc4c(C)cc(=O)oc4c3)sc2c1 (stereo not given) [7-(2-hydroxy-3-(6-methoxybenzo[d]thiazol-2-ylamino)propoxy)-4-methyl-2H-chromen-2-one (35)],2.12
2,Cc1cc(=O)oc2cc(OCC(O)CNc3nc4ccc([N+](=O)[O-])cc4s3)ccc12 (stereo not given) [7-(2-hydroxy-3-(6-nitrobenzo[d]thiazol-2-ylamino)propoxy)-4-methyl-2H-chromen-2-one (31)],3.24
3,"Cc1cc(=O)oc2cc(OCC(O)CNc3nc4cc(Cl)c(Cl)cc4s3)ccc12 (stereo not given) [7-(3-(5,6-dichlorobenzo[d]thiazol-2-ylamino)-2-hydroxypropoxy)-4-methyl-2H-chromen-2-one (34)]",15.5
4,Cc1cc(=O)oc2cc(OCC(O)CNc3nc4cc(Cl)c(F)cc4s3)ccc12 (stereo not given) [7-(3-(5-chloro-6-fluorobenzo[d]thiazol-2-ylamino)-2-hydroxypropoxy)-4-methyl-2H-chromen-2-one (32)],6.16
5,Cc1cc(=O)oc2cc(OCC(O)CNc3nc4ccc(Cl)cc4s3)ccc12 (stereo not given) [7-(3-(6-chlorobenzo[d]thiazol-2-ylamino)-2-hydroxypropoxy)-4-methyl-2H-chromen-2-one (33)],2.79

# Source: BindingDB's records for doi:10.1016/j.bioorg.2016.06.004 (Nirma University, 2016)
